As a reminder, the melting point is the temperature of the solid-liquid transition.

We go through five compounds from US6518339B1, “Aldehyde emission reduction for dibenzylidene sorbitol clarified plastics” (Milliken & Company, priority 2000, dated 2003).

Data set [1] in a line: Retort test, UV/VIS measurement of extracted aldehyde (Japanese Pharmacopoeia protocol). The settings on record: hydrazide in formulation with 3,4-DMDBS, versus 3,4-DMDBS alone. The procedure: Testing was then conducted to determine the extent of aldehyde extraction from the compounded plastics. The testing procedures were as follows: Retort testing was performed per the Japanese Pharmacopoeia protocol (Japanese Pharmacopoeia, 13th ed. 1996: 76-82). Seven 50-mil plaques of each formulation were cut into 9 strips, rinsed with water, and placed into clean 1 quart Mason jars containing 200 ml of deionized water. The jars were covered with aluminum foil and autoclaved for 1 hour. The extraction water was then analyzed for UV absorbance between 220-240 nm and from 241-350 nm, after a suitable blank had been tested. Powderless latex gloves were worn during the entire procedure.

Data set [2] is described as follows: Water solubility of the hydrazide/aldehyde reaction product. The format is physicochemical. The settings on record: tap water; precipitate from adipic dihydrazide and 4-methylbenzaldehyde. The method, then: The reaction product of hydrazide and aldehyde was then tested for water solubility. The test involved the following: To a 10-ounce sample vial was charged 30 ml of tap water and 0.14 g (0.8 mmol) of adipic dihydrazide. This mixture was shaken until a clear, colorless solution was obtained. 4-Methylbezaldehyde (0.14 g, 1.3 mmol) was added to the solution and the mixture was shaken for one minute, immediately precipitating a white solid. The mixture was then allowed to stand for an additional ten minutes, followed by collection of the solids by suction filtration to obtain […] of the (bis 4-methyl)adiponylbis(hydrazone).

For `NNC(=O)CCCCCC(=O)NN` [Example 5, Pimelic dihydrazide], the melting point fell in the range of 183.2 to 185 °C. Besides, in data set [1], the “Reduction of peak absorbance between 220-240 nm” value is recorded as 70% and the “Reduction of peak absorbance between 241-350 nm” value is recorded as 80%.

`Cc1ccc(C=NNC(=O)CCCCC(=O)NN=Cc2ccc(C)cc2)cc1` [(bis 4-methyl)adiponylbis(hydrazone)]: the “Water solubility, in words” value in data set [2] is “substantially insoluble in water”.

Compound `NNC(=O)CCCCCCC(=O)NN` [Example 6, Suberic dihydrazide] showed a melting point of 186.9 to 189.1 °C.

`NNC(=O)CCCC(=O)NN` [Example 4, Glutaric dihydrazide] returned a melting point of 176.3 to 178.6 °C.

Consider `NNC(=O)CCCCC(=O)NN` [Example 2, Adipic dihydrazide], for which the melting point lay in the range of 182.5 to 185.5 °C.
